Experimental data as given in patent publication US20240294498A1, “FACTOR XIIA INHIBITORS” (Lunac Therapeutics Ltd, priority 2021, published 2024).

Assays:
Type in all cases: biochemical
FXa = FXa (Homo sapiens, UniProt P00742); experiment: Determination of selectivity: FXa inhibition (chromogenic substrate S2765); settings: fold selectivity for FXIIa over FXa (human); category
Method: (§1) The activities of the compounds of the invention have been determined in vitro using the following assays protocols for the screening of activity of FXIIa and other proteases. Each of these assays were performed in a purified system employing the use of chromogenic assays in microplate plate wells. Chromogenic peptide substrates mimicking natural protein substrates are attached via an amide bond to a chromogenic group. Paranitroaniline (pNA) is released from the peptide following catalyses by the proteolytic enzyme; the absorbance increases and can be monitored at 405 nm.
(§2) All compounds were dissolved in 100% (v/v) DMSO to a stock concentration of 10 mM, the highest concentration of compound used in each assay is 500 μM. The final concentrations of DMSO were 5% (v/v) in 50 mM Tris 137 mM NaCl pH 7.4. Where no test compound was added a final concentration of 5% DMSO was employed.
(§3) To determine selectivity of test compounds, these test compounds were assayed for inhibitory activity against other serine proteases including FXa and thrombin. Essentially compounds at increasing concentrations were incubated with each enzyme: FXa (5 nM) and thrombin (5 nM), for 10 mins at 37° C. followed by the appropriate chromogenic substrate, S2765 (Chromogenix) and GPR (Bachem) respectively in 50 mM Tris, 137 mM NaCl, pH 7.4. Substrates were used at a concentration equal to the appropriate experimentally derived KM. Kinetic readings at 405 nm were monitored every 12 secs for a total duration of 3 hours at 37° C. Gradients of initial rates were determined and employed to calculate IC50 values. Values of IC50 were converted to Ki values based on the formula:
(§4) Ki═IC50/(1+[Substrate]/Km)
(§5) Where [Substrate] denotes the concentration of substrate used in the assay and Km is the determined value of each enzyme with its own substrate.
The fold selectivity for FXIIa over FXa for the compounds of the invention has been categorised based on the fold selectivity values, the categories being “o”, “oo” and “ooo”. The category “o” refers to fold selectivity values less than 10 (e.g. a fold selectivity value of less than 10 and greater than 1). The category “oo” refers to a fold selectivity value of 10 to 100. The category “ooo” refers to fold selectivity values greater than 100.

FXIIa = biological target: T1, FXIIa (Homo sapiens, UniProt P00748); experiment: Determination of Factor XIIa inhibition (chromogenic substrate S-2302); settings: human FXIIa alpha, Ki category
T1 construct: FXIIa alpha
T1 sequence (P00748 373-615 limits assumed): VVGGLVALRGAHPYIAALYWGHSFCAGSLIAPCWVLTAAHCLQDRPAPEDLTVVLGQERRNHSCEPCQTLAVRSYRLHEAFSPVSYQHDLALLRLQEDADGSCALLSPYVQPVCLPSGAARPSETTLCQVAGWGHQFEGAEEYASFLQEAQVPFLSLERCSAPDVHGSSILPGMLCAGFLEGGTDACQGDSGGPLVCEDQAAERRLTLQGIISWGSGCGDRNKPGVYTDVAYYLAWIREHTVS
T1 sequence (P00748 20-372 partner limits assumed): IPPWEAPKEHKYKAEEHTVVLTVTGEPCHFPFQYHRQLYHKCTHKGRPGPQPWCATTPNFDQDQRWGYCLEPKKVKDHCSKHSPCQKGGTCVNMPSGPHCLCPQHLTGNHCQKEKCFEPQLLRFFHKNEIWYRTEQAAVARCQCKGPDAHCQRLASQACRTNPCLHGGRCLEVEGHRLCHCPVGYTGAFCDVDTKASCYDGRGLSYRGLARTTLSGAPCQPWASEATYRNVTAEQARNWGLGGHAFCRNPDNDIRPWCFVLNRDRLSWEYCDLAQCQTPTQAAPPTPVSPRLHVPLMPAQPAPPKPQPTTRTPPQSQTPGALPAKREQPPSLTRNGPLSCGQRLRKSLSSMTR
Method: as §1, §2
Factor XIIa activity was measured using a chromogenic substrate S-2302 (Chromogenix). Various concentrations of compound were incubated with 10 nM of FXIIa and incubated at 37° C. for 10 minutes in 50 mM Tris, 137 mM NaCl, pH 7.4, prior to the addition of the chromogenic substrate S-2302 at a concentration equal the to the experimentally derived KM. Kinetic readings at 405 nm were monitored every 12 secs for a total duration of 3 hours at 37° C. Gradients of initial rates were determined and employed to calculate IC50 values.
The activity of the compounds of the invention has been categorised based on the Ki values, the categories being “†”, “*”, “**” and “***”. […] The category “**” refers to compounds with a Ki value of 0.2 μM to 0.8 μM.
as §4, §5

thrombin = biological target: T2, thrombin (Homo sapiens, UniProt P00734); experiment: Determination of selectivity: thrombin inhibition (chromogenic substrate GPR); settings: fold selectivity for FXIIa over thrombin (human); category
T2 construct: FXa (5 nM) and thrombin (5 nM)
Method: as §1, §2, §3, §4, §5
The fold selectivity for FXIIa over thrombin for the compounds of the invention has been categorised based on the fold selectivity values, the categories being “+”, “++” and “+++”. The category “+” refers to fold selectivity values less than 10 (e.g. a fold selectivity value of less than 10 and greater than 1). The category “++” refers to a fold selectivity value of 10 to 100. The category “+++” refers to fold selectivity values greater than 100.

FXa, sequence (P00742 235-488 limits assumed): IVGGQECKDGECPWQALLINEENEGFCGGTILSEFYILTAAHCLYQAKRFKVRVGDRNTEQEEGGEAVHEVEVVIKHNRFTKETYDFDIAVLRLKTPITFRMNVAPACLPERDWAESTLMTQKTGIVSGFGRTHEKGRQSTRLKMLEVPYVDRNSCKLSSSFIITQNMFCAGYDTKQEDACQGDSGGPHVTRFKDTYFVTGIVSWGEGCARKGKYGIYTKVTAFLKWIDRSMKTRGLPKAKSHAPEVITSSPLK
FXa, sequence (P00742 41-179 partner limits assumed): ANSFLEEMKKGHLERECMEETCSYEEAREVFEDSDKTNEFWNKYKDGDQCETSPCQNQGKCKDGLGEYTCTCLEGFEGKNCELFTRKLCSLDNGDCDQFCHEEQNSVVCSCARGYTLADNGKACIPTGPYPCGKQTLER

Row | SMILES | FXa (human)/FXIIa alpha (human) (FXa) | Ki (FXIIa) | Thrombin (human)/FXIIa alpha (human) (thrombin)
1 | Cc1ccc2c(c1)CCN2C1C[C@@H](C(=O)NCc2ccc3c(cnn3C)c2)N(C(=O)[C@@H]2NCCC[C@@H]2C(=O)N2CCCC2)C1 (single isomer, unassigned) [Example M05838] | ∘∘∘ | 0.2 to 0.8 µM | +++ (fold selectivity values greater than 100)
2 | Cc1ccc2c(c1)CCN2C1C[C@@H](C(=O)NCc2ccc3c(cnn3C)c2)N(C(=O)[C@@H]2NCCC[C@@H]2C(=O)N2CCCC2)C1 (single isomer, unassigned) [Example M05839] | ∘∘∘ | 0.2 to 0.8 µM | +++ (fold selectivity values greater than 100)
3 | Cc1ccc(C=C2C[C@@H](C(=O)NCc3ccc4c(cnn4C)c3)N(C(=O)[C@@H]3NCCC[C@@H]3C(=O)N3CCCC3)C2)cc1 (single isomer, unassigned) [Example M05843] | ∘∘∘ | 0.2 to 0.8 µM | +++ (fold selectivity values greater than 100)
4 | Cc1ccc(C=C2C[C@@H](C(=O)NCc3ccc4c(cnn4C)c3)N(C(=O)[C@@H]3NCCC[C@@H]3C(=O)N3CCCC3)C2)cc1 (single isomer, unassigned) [Example M05844] | ∘∘ | 0.8 to 5 µM | ++ (a fold selectivity value of 10 to 100)
5 | Cc1ccc(C[C@@H]2C[C@@H](C(=O)NCc3ccc4c(cnn4C)c3)N(C(=O)[C@@H]3NCCC[C@@H]3C(=O)N(C)CCN(C)C)C2)cc1 (single isomer, unassigned) [Example M05902] | ∘∘∘ | < 0.2 µM | +++ (fold selectivity values greater than 100)
6 | Cn1nnc2cc(CNC(=O)[C@@H]3C[C@@H](CC4CCC5(CC4)CC5)CN3C(=O)[C@@H]3NCCC[C@@H]3C(=O)N3CCCC3)ccc21 [Compound M06003] | ∘∘∘ | 0.2 to 0.8 µM | +++ (fold selectivity values greater than 100)
7 | COc1ccc(C[C@@H]2C[C@@H](C(=O)NCc3cc4cnccc4[nH]3)N(C(=O)[C@@H]3NCCC[C@@H]3C(=O)N3CCCC3)C2)cc1 [Example M00466, (2S,4R)-N-((1H-pyrrolo[3,2-c]pyridin-2-yl)methyl)-4-(4-mthoxybenzyl)-1-((2R,3S)-3-(pyrrolidine-1-carbonyl)piperidine-2-carbonyl)pyrrolidine-2-carboxamide] | ∘∘∘ | < 0.2 µM | +++ (fold selectivity values greater than 100)
8 | COc1ccc(C[C@@H]2C[C@@H](C(=O)NCc3cc4cnccc4[nH]3)N(C(=O)[C@@H]3NCCC[C@@H]3C(=O)N3CCCC3(C)C)C2)cc1 [Example M00467] | ∘∘ | < 0.2 µM | + (fold selectivity values less than 10 (e.g. a fold selectivity value of less than 10 and greater than 1))
9 | COc1ccc(C[C@@H]2C[C@@H](C(=O)NCc3ccc4c(c3)nnn4C)N(C(=O)[C@@H]3NCCC[C@@H]3C(=O)N3CCCC3)C2)cc1 [Example M04490] | ∘∘∘ | < 0.2 µM | +++ (fold selectivity values greater than 100)
10 | Cc1ccc(C[C@@H]2C[C@@H](C(=O)NCc3ccc4c(cnn4C)c3)N(C(=O)[C@@H]3NCCC[C@@H]3C(=O)N3CCCC3)C2)cc1 [Example M05675, (2S,4R)-N-((1-methyl-1H-indazol-5-yl)methyl)-4-(4-methylbenzyl)-1-((2R,3S)-3-(pyrrolidine-1-carbonyl)piperidine-2-carbonyl)pyrrolidine-2-carboxamide] | ∘∘∘ | < 0.2 µM | +++ (fold selectivity values greater than 100)
11 | Cn1ncc2cc(CNC(=O)[C@@H]3C[C@@H](Cc4ccn(C5CC5)n4)CN3C(=O)[C@@H]3NCCC[C@@H]3C(=O)N3CCCC3)ccc21 [Example M05983, (2S,4S)-4-((1-cyclopropyl-1H-pyrazol-3-yl)methyl)-N-((1-methyl-1H-indazol-5-yl)methyl)-1-((2R,3S)-3-(pyrrolidine-1-carbonyl)piperidine-2-carbonyl)pyrrolidine-2-carboxamide] | ∘∘∘ | 0.8 to 5 µM | –
12 | Cc1ccc(C[C@@H]2C[C@@H](C(=O)NCc3ccn4c(C(F)F)nnc4c3)N(C(=O)[C@@H]3NCCC[C@@H]3C(=O)N3CCCC3)C2)cc1 [Example M05985, (2S,4R)-N-[[3-(difluoromethyl)-[1,2,4]triazolo[4,3-a]pyridin-7-yl]methyl]-4-(p-tolylmethyl)-1-[(2R,3S)-3-(pyrrolidine-1-carbonyl)piperidine-2-carbonyl]pyrrolidine-2-carboxamide] | – | 0.8 to 5 µM | –
13 | Cn1nnc2cc(CNC(=O)[C@@H]3C[C@@H](Cc4ccc(C5(F)CC5)cc4)CN3C(=O)[C@@H]3NCCC[C@@H]3C(=O)N3CCCC3)ccc21 [Example M06068, (2S,4R)-4-[[4-(1-fluorocyclopropyl)phenyl]methyl]-N-[(1-methylbenzotriazol-5-yl)methyl]-1-[(2R,3S)-3-(pyrrolidine-1-carbonyl)piperidine-2-carbonyl]pyrrolidine-2-carboxamide] | ∘∘∘ | 0.8 to 5 µM | –
14 | Cn1nnc2cc(CNC(=O)[C@@H]3C[C@@H](Cc4ccc(C5CC5)nc4)CN3C(=O)[C@@H]3NCCC[C@@H]3C(=O)N3CCC[C@@H]3C(F)(F)F)ccc21 [Example M06070, (2S,4R)-4-[(6-cyclopropyl-3-pyridyl)methyl]-N-[(1-methylbenzotriazol-5-yl)methyl]-1-[(2R,3S)-3-[(2R)-2-(trifluoromethyl)pyrrolidine-1-carbonyl]piperidine-2-carbonyl]pyrrolidine-2-carboxamide] | ∘∘∘ | 0.2 to 0.8 µM | –
15 | Cc1ccc(C[C@@H]2C[C@@H](C(=O)NCCCc3cnn(C)c3)N(C(=O)[C@@H]3NCCC[C@@H]3C(=O)N3CCC[C@@H]3C(F)(F)F)C2)cc1 [Example M06077] | – | 0.8 to 5 µM | –
